Results published in a compilation of properties of binary mixtures (doi:10.1021/acs.jced.0c00447).

Test: xn = mol fraction of the nth substance listed
Details: 100 kPa

SMILES: OCC(F)(F)F + CC[n+]1ccn(C)c1.N#C[N-]C#N
- speed of sound (303.15 K, x2 = 0): 819.3 m/s
- viscosity (303.15 K, x2 = 0): 1.56 mPa·s
- speed of sound (313.15 K, x2 = 0): 792.3 m/s
- viscosity (313.15 K, x2 = 0): 1.23 mPa·s
- speed of sound (318.15 K, x2 = 0): 778.8 m/s
- viscosity (318.15 K, x2 = 0): 1.1 mPa·s
- speed of sound (323.15 K, x2 = 0): 765.1 m/s
- viscosity (323.15 K, x2 = 0): 0.99 mPa·s

SMILES: CC[n+]1ccn(C)c1.N#C[N-]C#N + OCC(F)(F)F
- speed of sound (298.15 K, x1 = 0.1031): 1021.8 m/s
- viscosity (298.15 K, x1 = 0.1031): 2.48 mPa·s
- speed of sound (298.15 K, x1 = 0.1957): 1150.9 m/s
- viscosity (298.15 K, x1 = 0.1957): 3.2 mPa·s
- speed of sound (298.15 K, x1 = 0.4905): 1463.6 m/s
- viscosity (298.15 K, x1 = 0.4905): 6.07 mPa·s
- speed of sound (298.15 K, x1 = 0.5915): 1544.5 m/s
- viscosity (298.15 K, x1 = 0.5915): 7.25 mPa·s
- speed of sound (298.15 K, x1 = 0.6943): 1614.6 m/s
- viscosity (298.15 K, x1 = 0.6943): 8.56 mPa·s
- speed of sound (298.15 K, x1 = 0.7956): 1673.5 m/s
- viscosity (298.15 K, x1 = 0.7956): 9.95 mPa·s
- speed of sound (298.15 K, x1 = 0.8915): 1730.2 m/s
- viscosity (298.15 K, x1 = 0.8915): 11.36 mPa·s
- speed of sound (298.15 K, x1 = 1): 1786.7 m/s
- viscosity (298.15 K, x1 = 1): 13.09 mPa·s
- speed of sound (303.15 K, x1 = 0.1957): 1137.7 m/s
- viscosity (303.15 K, x1 = 0.1957): 2.81 mPa·s
- speed of sound (303.15 K, x1 = 0.2936): 1258.6 m/s
- viscosity (303.15 K, x1 = 0.2936): 3.55 mPa·s
- speed of sound (303.15 K, x1 = 0.3935): 1366.8 m/s
- viscosity (303.15 K, x1 = 0.3935): 4.39 mPa·s
- speed of sound (303.15 K, x1 = 0.4905): 1450.9 m/s
- viscosity (303.15 K, x1 = 0.4905): 5.29 mPa·s
- speed of sound (303.15 K, x1 = 0.6943): 1602.2 m/s
- viscosity (303.15 K, x1 = 0.6943): 7.46 mPa·s
- speed of sound (303.15 K, x1 = 0.7956): 1661.2 m/s
- viscosity (303.15 K, x1 = 0.7956): 8.67 mPa·s
- speed of sound (303.15 K, x1 = 0.8915): 1717.9 m/s
- viscosity (303.15 K, x1 = 0.8915): 9.91 mPa·s
- speed of sound (303.15 K, x1 = 1): 1774.6 m/s
- viscosity (303.15 K, x1 = 1): 11.39 mPa·s
- speed of sound (308.15 K, x1 = 0.1031): 995.3 m/s
- viscosity (308.15 K, x1 = 0.1031): 1.96 mPa·s
- speed of sound (308.15 K, x1 = 0.1957): 1124.7 m/s
- viscosity (308.15 K, x1 = 0.1957): 2.52 mPa·s
- speed of sound (308.15 K, x1 = 0.2936): 1245.8 m/s
- viscosity (308.15 K, x1 = 0.2936): 3.17 mPa·s
- speed of sound (308.15 K, x1 = 0.3935): 1354.2 m/s
- viscosity (308.15 K, x1 = 0.3935): 3.92 mPa·s
- speed of sound (308.15 K, x1 = 0.4905): 1438.3 m/s
- viscosity (308.15 K, x1 = 0.4905): 4.71 mPa·s
- speed of sound (308.15 K, x1 = 0.5915): 1519.5 m/s
- viscosity (308.15 K, x1 = 0.5915): 5.61 mPa·s
- speed of sound (308.15 K, x1 = 0.6943): 1590 m/s
- viscosity (308.15 K, x1 = 0.6943): 6.6 mPa·s
- speed of sound (308.15 K, x1 = 0.7956): 1649.1 m/s
- viscosity (308.15 K, x1 = 0.7956): 7.66 mPa·s
- speed of sound (308.15 K, x1 = 1): 1762.5 m/s
- viscosity (308.15 K, x1 = 1): 10 mPa·s
- speed of sound (313.15 K, x1 = 0.1031): 982.2 m/s
- viscosity (313.15 K, x1 = 0.1031): 1.76 mPa·s
- speed of sound (313.15 K, x1 = 0.1957): 1111.8 m/s
- viscosity (313.15 K, x1 = 0.1957): 2.27 mPa·s
- speed of sound (313.15 K, x1 = 0.2936): 1233.1 m/s
- viscosity (313.15 K, x1 = 0.2936): 2.87 mPa·s
- speed of sound (313.15 K, x1 = 0.3935): 1341.7 m/s
- viscosity (313.15 K, x1 = 0.3935): 3.54 mPa·s
- speed of sound (313.15 K, x1 = 0.4905): 1425.9 m/s
- viscosity (313.15 K, x1 = 0.4905): 4.25 mPa·s
- speed of sound (313.15 K, x1 = 0.5915): 1507.3 m/s
- viscosity (313.15 K, x1 = 0.5915): 5.04 mPa·s
- speed of sound (313.15 K, x1 = 0.6943): 1577.9 m/s
- viscosity (313.15 K, x1 = 0.6943): 5.91 mPa·s
- speed of sound (313.15 K, x1 = 0.7956): 1637 m/s
- viscosity (313.15 K, x1 = 0.7956): 6.83 mPa·s
- speed of sound (313.15 K, x1 = 0.8915): 1693.9 m/s
- viscosity (313.15 K, x1 = 0.8915): 7.76 mPa·s
- speed of sound (318.15 K, x1 = 0.1031): 969.4 m/s
- viscosity (318.15 K, x1 = 0.1031): 1.6 mPa·s
- speed of sound (318.15 K, x1 = 0.3935): 1329.4 m/s
- viscosity (318.15 K, x1 = 0.3935): 3.23 mPa·s
- speed of sound (318.15 K, x1 = 0.4905): 1413.7 m/s
- viscosity (318.15 K, x1 = 0.4905): 3.86 mPa·s
- speed of sound (318.15 K, x1 = 0.5915): 1495.2 m/s
- viscosity (318.15 K, x1 = 0.5915): 4.57 mPa·s
- speed of sound (318.15 K, x1 = 0.6943): 1565.9 m/s
- viscosity (318.15 K, x1 = 0.6943): 5.34 mPa·s
- speed of sound (318.15 K, x1 = 0.7956): 1625 m/s
- viscosity (318.15 K, x1 = 0.7956): 6.15 mPa·s
- speed of sound (318.15 K, x1 = 0.8915): 1682 m/s
- viscosity (318.15 K, x1 = 0.8915): 6.96 mPa·s
- speed of sound (318.15 K, x1 = 1): 1738.8 m/s
- viscosity (318.15 K, x1 = 1): 7.92 mPa·s
- speed of sound (323.15 K, x1 = 0.1031): 956.4 m/s
- viscosity (323.15 K, x1 = 0.1031): 1.48 mPa·s
- speed of sound (323.15 K, x1 = 0.1957): 1086.4 m/s
- viscosity (323.15 K, x1 = 0.1957): 1.93 mPa·s
- speed of sound (323.15 K, x1 = 0.2936): 1208.1 m/s
- viscosity (323.15 K, x1 = 0.2936): 2.44 mPa·s
- speed of sound (323.15 K, x1 = 0.3935): 1317.1 m/s
- viscosity (323.15 K, x1 = 0.3935): 2.99 mPa·s
- speed of sound (323.15 K, x1 = 0.4905): 1401.5 m/s
- viscosity (323.15 K, x1 = 0.4905): 3.57 mPa·s
- speed of sound (323.15 K, x1 = 0.5915): 1483.2 m/s
- viscosity (323.15 K, x1 = 0.5915): 4.2 mPa·s
- speed of sound (323.15 K, x1 = 0.6943): 1553.9 m/s
- viscosity (323.15 K, x1 = 0.6943): 4.89 mPa·s
- speed of sound (323.15 K, x1 = 0.7956): 1613.1 m/s
- viscosity (323.15 K, x1 = 0.7956): 5.6 mPa·s
- speed of sound (323.15 K, x1 = 0.8915): 1670.2 m/s
- viscosity (323.15 K, x1 = 0.8915): 6.31 mPa·s
- speed of sound (323.15 K, x1 = 1): 1727.1 m/s
- viscosity (323.15 K, x1 = 1): 7.13 mPa·s
